This passage reports Relative potency results from ChEMBL document CHEMBL1131484, “Human growth hormone-releasing hormone hGHRH(1-29)-NH2: systematic structure-activity relationship studies” (J Med Chem, 1998).

“And” between values parts separate entries of the source, which are not always exact repeats. Equal values may be shown once. Bridge positions count the residues as written; N and C are the ends. Peptide text beside a SMILES is read from it.

The assay deals with T1, Growth hormone-releasing hormone receptor (Rattus norvegicus) (UniProt Q02644).
T1 sequence (whole entry): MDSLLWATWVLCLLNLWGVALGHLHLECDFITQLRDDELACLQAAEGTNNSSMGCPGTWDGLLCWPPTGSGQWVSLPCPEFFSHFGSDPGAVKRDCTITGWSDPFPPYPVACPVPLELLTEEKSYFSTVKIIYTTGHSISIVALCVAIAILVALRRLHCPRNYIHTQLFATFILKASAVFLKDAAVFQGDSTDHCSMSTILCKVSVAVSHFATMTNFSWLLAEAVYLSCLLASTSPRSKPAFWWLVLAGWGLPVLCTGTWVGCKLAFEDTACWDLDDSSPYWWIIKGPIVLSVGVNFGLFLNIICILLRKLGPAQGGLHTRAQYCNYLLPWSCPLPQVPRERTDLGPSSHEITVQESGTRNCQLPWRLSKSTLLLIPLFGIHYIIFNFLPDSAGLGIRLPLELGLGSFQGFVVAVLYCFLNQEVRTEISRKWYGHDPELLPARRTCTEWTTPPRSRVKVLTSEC
Nature of the assay: Potency for growth hormone releasing hormone receptor (GHRFR) relative to human GHRH(1-40)OH- in the rat pituitary cell culture assay. The note with it: Pituitary gland cell. The format is functional, cell-based.
In the case of `CC[C@@H](C)[C@@H](NC(=O)[C@@H](C)NC(=O)[C@@H](CC(=O)O)NC(=O)[C@@H](C)NC(=O)[C@H](N)Cc1ccc(O)cc1)C(=O)N[C@H](Cc1ccccc1)C(=O)N[C@@H]1CCC(=O)NCCCC[C@@H](C(=O)N[C@@H](CCCN=C(N)N)C(=O)N[C@@H](CCCCN)C(=O)N[C@H](C(=O)N[C@@H](CC(C)C)C(=O)NCC(=O)N[C@@H](CCC(N)=O)C(=O)N[C@@H](CC(C)C)C(=O)N[C@@H](CO)C(=O)N[C@@H](C)C(=O)N[C@@H](CCCN=C(N)N)C(=O)N[C@@H](CCCCN)C(=O)N[C@@H](CC(C)C)C(=O)N[C@@H](CC(C)C)C(=O)N[C@@H](CCC(N)=O)C(=O)N[C@@H](CC(=O)O)C(=O)N[C@H](C(=O)N[C@@H](CCSC)C(=O)N[C@@H](CO)C(=O)N[C@@H](CCCN=C(N)N)C(N)=O)[C@@H](C)CC)C(C)C)NC(=O)[C@H](CO)NC(=O)[C@@H](CC(N)=O)NC1=O`, the Relative potency stood at 0.008. The value for `CC[C@@H](C)[C@@H](NC(=O)[C@@H](CC(=O)O)NC(=O)[C@@H](CCC(N)=O)NC(=O)[C@@H](CC(C)C)NC(=O)[C@H]1CCCCNC(=O)CC[C@H](NC(=O)[C@H](CO)NC(=O)[C@H](CC(C)C)NC(=O)[C@H](CCC(N)=O)NC(=O)CNC(=O)[C@H](CC(C)C)NC(=O)[C@@H](NC(=O)[C@H](CCCCN)NC(=O)[C@H](CCCN=C(N)N)NC(=O)[C@H](Cc2ccc(O)cc2)NC(=O)[C@H](CO)NC(=O)[C@H](CC(N)=O)NC(=O)[C@@H](NC(=O)[C@H](Cc2ccccc2)NC(=O)[C@@H](NC(=O)[C@H](C)NC(=O)[C@H](CC(=O)O)NC(=O)[C@H](C)NC(=O)[C@@H](N)Cc2ccc(O)cc2)[C@@H](C)CC)[C@@H](C)O)C(C)C)C(=O)N[C@@H](CCCN=C(N)N)C(=O)N[C@H](CCCCN)C(=O)N1)C(=O)N[C@@H](CCSC)C(=O)N[C@@H](CO)C(=O)N[C@@H](CCCN=C(N)N)C(N)=O` was 0.4.

H-YADAIFANSYRKVLGQLSARKLLQDIMSR-NH2 had a Relative potency of 0.29.

`CC[C@H](C)[C@H](NC(=O)[C@H](C)NC(=O)[C@H](CC(=O)O)NC(=O)[C@H](C)NC(=O)[C@@H](N)Cc1ccc(O)cc1)C(=O)N[C@@H](Cc1ccccc1)C(=O)N[C@H](C(=O)N[C@H]1CCC(=O)NCCCC[C@H](C(=O)N[C@@H](CCCCN)C(=O)N[C@H](C(=O)N[C@@H](CC(C)C)C(=O)NCC(=O)N[C@@H](CCC(N)=O)C(=O)N[C@@H](CC(C)C)C(=O)N[C@@H](CO)C(=O)N[C@@H](C)C(=O)N[C@@H](CCCN=C(N)N)C(=O)N[C@@H](CCCCN)C(=O)N[C@@H](CC(C)C)C(=O)N[C@@H](CC(C)C)C(=O)N[C@@H](CCC(N)=O)C(=O)N[C@@H](CC(=O)O)C(=O)N[C@H](C(=O)N[C@@H](CCSC)C(=O)N[C@@H](CO)C(=O)N[C@@H](CCCN=C(N)N)C(N)=O)[C@@H](C)CC)C(C)C)NC(=O)[C@H](Cc2ccc(O)cc2)NC(=O)[C@H](CO)NC1=O)[C@@H](C)O` returned a Relative potency of 0.014. In the case of `CC[C@@H](C)[C@@H](NC(=O)[C@@H](C)NC(=O)[C@@H](CC(=O)O)NC(=O)[C@@H](C)NC(=O)[C@H](N)Cc1ccc(O)cc1)C(=O)N[C@H](Cc1ccccc1)C(=O)N[C@@H](C(=O)N[C@H](CC(N)=O)C(=O)N[C@H](CO)C(=O)N[C@H]1CCC(=O)NCCCC[C@H](C(=O)N[C@@H](CC(C)C)C(=O)NCC(=O)N[C@H](CCC(N)=O)C(=O)N[C@H](CC(C)C)C(=O)N[C@H](CO)C(=O)N[C@H](C)C(=O)N[C@H](CCCN=C(N)N)C(=O)N[C@H](CCCCN)C(=O)N[C@H](CC(C)C)C(=O)N[C@H](CC(C)C)C(=O)N[C@H](CCC(N)=O)C(=O)N[C@H](CC(=O)O)C(=O)N[C@@H](C(=O)N[C@H](CCSC)C(=O)N[C@H](CO)C(=O)N[C@H](CCCN=C(N)N)C(N)=O)[C@H](C)CC)NC(=O)[C@@H](CCCCN)NC(=O)[C@H](CCCN=C(N)N)NC1=O)[C@H](C)O` it was 0.088; in that of H-YADAIFTNSYRKVLGQLAARKLLQDIMSR-NH2, 1.6 and 1.4; in that of H-YADAIFTNSARKVLGQLSARKLLQDIMSR-NH2, 0.01. H-YAAAIFTNSYRKVLGQLSARKLLQDIMSR-NH2 returned a Relative potency of 0.05. The value for H-YADAIFTNSYRKVAGQLSARKLLQDIMSR-NH2 was 0.01; that for `CC[C@H](C)[C@H](NC(=O)[C@H](C)NC(=O)[C@H](CC(=O)O)NC(=O)[C@H](C)NC(=O)[C@@H](N)Cc1ccc(O)cc1)C(=O)N[C@@H](Cc1ccccc1)C(=O)N[C@H](C(=O)N[C@@H](CC(N)=O)C(=O)N[C@@H](CO)C(=O)N[C@@H](Cc1ccc(O)cc1)C(=O)N[C@@H](CCCN=C(N)N)C(=O)N[C@@H](CCCCN)C(=O)N[C@H](C(=O)N[C@@H](CC(C)C)C(=O)NCC(=O)N[C@H]1CCC(=O)NCCCC[C@H](C(=O)N[C@@H](CCCN=C(N)N)C(=O)N[C@@H](CCCCN)C(=O)N[C@@H](CC(C)C)C(=O)N[C@@H](CC(C)C)C(=O)N[C@@H](CCC(N)=O)C(=O)N[C@@H](CC(=O)O)C(=O)N[C@H](C(=O)N[C@@H](CCSC)C(=O)N[C@@H](CO)C(=O)N[C@@H](CCCN=C(N)N)C(N)=O)[C@@H](C)CC)NC(=O)[C@@H](CO)NC(=O)[C@H](CC(C)C)NC1=O)C(C)C)[C@@H](C)O` was 2.8. In turn, H-YADAIFTNSYRAVLGQLSARKLLQDIMSR-NH2 displayed a Relative potency of 0.16.

In the case of `CC[C@H](C)[C@H](NC(=O)[C@H](C)NC(=O)[C@H](CC(=O)O)NC(=O)[C@H](C)NC(=O)[C@@H](N)Cc1ccc(O)cc1)C(=O)N[C@@H](Cc1ccccc1)C(=O)N[C@H](C(=O)N[C@@H](CC(N)=O)C(=O)N[C@@H](CO)C(=O)N[C@@H](Cc1ccc(O)cc1)C(=O)N[C@@H](CCCN=C(N)N)C(=O)N[C@@H](CCCCN)C(=O)N[C@H](C(=O)N[C@@H](CC(C)C)C(=O)NCC(=O)N[C@@H](CCC(N)=O)C(=O)N[C@@H]1CCC(=O)NCCCC[C@@H](C(=O)N[C@H](CCCCN)C(=O)N[C@@H](CC(C)C)C(=O)N[C@@H](CC(C)C)C(=O)N[C@@H](CCC(N)=O)C(=O)N[C@@H](CC(=O)O)C(=O)N[C@H](C(=O)N[C@@H](CCSC)C(=O)N[C@@H](CO)C(=O)N[C@@H](CCCN=C(N)N)C(N)=O)[C@@H](C)CC)NC(=O)[C@H](C)NC(=O)[C@@H](CO)NC1=O)C(C)C)[C@@H](C)O`, the Relative potency worked out at 0.23. On to `CC[C@H](C)[C@H](NC(=O)[C@H](C)NC(=O)[C@H](CC(=O)O)NC(=O)[C@H](C)NC(=O)[C@@H](N)Cc1ccc(O)cc1)C(=O)N[C@@H](Cc1ccccc1)C(=O)N[C@H](C(=O)N[C@@H](CC(N)=O)C(=O)N[C@@H](CO)C(=O)N[C@@H](Cc1ccc(O)cc1)C(=O)N[C@@H](CCCN=C(N)N)C(=O)N[C@@H](CCCCN)C(=O)N[C@H](C(=O)N[C@H]1CCC(=O)NCCCC[C@@H](C(=O)N[C@@H](CO)C(=O)N[C@@H](C)C(=O)N[C@@H](CCCN=C(N)N)C(=O)N[C@@H](CCCCN)C(=O)N[C@@H](CC(C)C)C(=O)N[C@@H](CC(C)C)C(=O)N[C@@H](CCC(N)=O)C(=O)N[C@@H](CC(=O)O)C(=O)N[C@H](C(=O)N[C@@H](CCSC)C(=O)N[C@@H](CO)C(=O)N[C@@H](CCCN=C(N)N)C(N)=O)[C@@H](C)CC)NC(=O)[C@H](CCC(N)=O)NC(=O)CNC1=O)C(C)C)[C@@H](C)O` (H-YADAIFTNSYRKVEGQKSARKLLQDIMSR-NH2; lactam 14-17), for which the Relative potency turned out to be 0.026. In the case of H-YADAIFTNSYRKVLGQLSARKLLQDAMSR-NH2 it was 1.1. In turn, `CCCC[C@H]1NC(=O)[C@H]([C@@H](C)CC)NC(=O)[C@@H](NC(=O)[C@H](Cc2c[nH]cn2)NC(=O)[C@H](CC(C)C)NC(=O)[C@H](CC(C)C)NC(=O)[C@H](CCCCN)NC(=O)[C@H](CCCN=C(N)N)NC(=O)[C@H](Cc2ccccc2)NC(=O)[C@@H](NC(=O)[C@H](CC(C)C)NC(=O)[C@H](CCC(N)=O)NC(=O)[C@H](C)NC(=O)[C@H](CC(C)C)NC(=O)[C@@H](NC(=O)[C@H](CCCN=C(N)N)NC(=O)[C@H](CCCN=C(N)N)NC(=O)[C@H](Cc2ccc(O)cc2)NC(=O)[C@H](CO)NC(=O)[C@H](CO)NC(=O)[C@@H](NC(=O)[C@H](Cc2ccccc2)NC(=O)[C@@H](NC(=O)[C@H](C)NC(=O)[C@H](CC(=O)O)NC(=O)[C@H](C)NC(=O)[C@@](C)(N)Cc2c[nH]cn2)[C@@H](C)CC)[C@@H](C)O)[C@@H](C)CC)[C@@H](C)CC)CSSC[C@H](C(N)=O)NC(=O)[C@H](CC(N)=O)NC1=O` came in with a Relative potency of 1.1. For H-YADAIFTNSYRKVLGQLSARKLLADIMSR-NH2, the Relative potency was 1.3. Turning to `CC[C@H](C)[C@H](NC(=O)[C@H](C)NC(=O)[C@H](CC(=O)O)NC(=O)[C@H](C)NC(=O)[C@@H](N)Cc1ccc(O)cc1)C(=O)N[C@@H](Cc1ccccc1)C(=O)N[C@H](C(=O)N[C@@H](CC(N)=O)C(=O)N[C@@H](CO)C(=O)N[C@@H](Cc1ccc(O)cc1)C(=O)N[C@@H](CCCN=C(N)N)C(=O)N[C@@H](CCCCN)C(=O)N[C@H](C(=O)N[C@@H](CC(C)C)C(=O)NCC(=O)N[C@@H](CCC(N)=O)C(=O)N[C@@H](CC(C)C)C(=O)N[C@@H](CO)C(=O)N[C@@H](C)C(=O)N[C@H](CCCN=C(N)N)C(=O)N[C@H](CCCCN)C(=O)N[C@H](CC(C)C)C(=O)N[C@H](CC(C)C)C(=O)N[C@@H]1CCC(=O)NCCCC[C@@H](C(=O)N[C@@H](CO)C(=O)N[C@@H](CCCN=C(N)N)C(N)=O)NC(=O)[C@H]([C@@H](C)CC)NC(=O)[C@@H](CC(=O)O)NC1=O)C(C)C)[C@@H](C)O`, the Relative potency came to 1.3. The value for H-YADAIFTNSYRKVLGQLSARKALQDIMSR-NH2 was 4.7.
